Data: US12435060B2, “Acylamino bridged heterocyclic compound, and composition and application thereof” (BEIJING SCITECH-MQ PHARMACEUTICALS LIMITED, priority 2019, dated 2025)
pIC50: −log10 of the molar value.

Test system: HT29 cells
Assay: Inhibition of cell necrosis (CCK8 method), induced programmed necrosis of HT29 cells
Type: cell-based
Settings: Homo sapiens, HT-29; rescue from necrosis induced by TNF-α 20 ng/mL, AT-406 1 μM, Z-VAD-FMK 20 μM; 16-20 hours; CCK-8, OD 450 nm
How it was run: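 HT29 cells in McCOY's 5A with 10% FBS were pre-treated for 30 min with compound (9 fourfold steps, 25000 to 0.38 nM final, 0.25% DMSO). Necrosis was then induced with TNF-α 20 ng/mL, AT-406 1 μM and Z-VAD-FMK 20 μM for 16-20 h. Viability was read by CCK-8 OD450, normalized between uninduced and induced wells, and IC50 was curve-fitted.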

Q: How did the pIC50 turn out when `Cc1ncccc1-c1ccnc(NC(=O)c2nnc(Cc3ccccc3)[nH]2)c1` [Example 20, 5-benzyl-N-(2-methyl-[3,4′-bipyridin]-2′-yl)-4H-1,2,4-triazole-3-carboxamide] was run?
A: 6.00 to 7.00

Q: How did the pIC50 turn out when `CC(C)(O)CCCOc1ccc(Cl)c(-c2ccnc(NC(=O)c3nnc(Cc4c(F)ccc(F)c4F)[nH]3)c2)c1` [Example 353, N-(4-(2-chloro-5-((4-hydroxy-4-methylpentyl)oxy)phenyl)pyridin-2-yl)-5-(2,3,6-trifluorobenzyl)-4H-1,2,4-triazole-3-carboxamide] was run?
A: ≥ 7.00

Q: With `Cc1ccc(OCCCCO)cc1-c1ccnc(NC(=O)c2nnc(Cc3ccccc3)[nH]2)c1` [Example 151, 5-benzyl-N-(4-(5-(4-hydroxybutoxy)-2-methylphenyl)pyridin-2-yl)-4H-1,2,4-triazole-3-carboxamide] as the compound, how does the pIC50 read?
A: ≥ 7.00

Q: `Cc1ccc(OCCCC(C)(C)O)cc1-c1cc(NC(=O)c2nnc(CC3CCCC3)[nH]2)ncn1` [Example 439, 5-(cyclopentylmethyl)-N-(6-(5-((4-hydroxy-4-methylpentyl)oxy)-2-methylphenyl)pyrimidin-4-yl)-4H-1,2,4-triazole-3-carboxamide] was tested. Which pIC50 did it give?
A: ≥ 7.00

Q: With `COCCCOc1ccc(C(F)(F)F)c(-c2ccnc(NC(=O)c3nnc(Cc4ccccc4F)[nH]3)c2)c1` [Example 296, 5-(2-fluorobenzyl)-N-(4-(5-(3-methoxypropoxy)-2-(trifluoromethyl)phenyl)pyridin-2-yl)-4H-1,2,4-triazole-3-carboxamide] as the compound, how does the pIC50 read?
A: ≥ 7.00

Q: `O=C(Nc1cc(C2CCOCC2)ccn1)c1nnc(Cc2ccccc2)[nH]1` [Example 49, 5-benzyl-N-(4-(tetrahydro-2H-pyran-4-yl)pyridin-2-yl)-4H-1,2,4-triazole-3-carboxamide] was tested. Which pIC50 did it give?
A: 5.00 to 6.00

Q: `COc1ccc(Cl)cc1-c1ccnc(NC(=O)c2nnc(Cc3ccccc3)[nH]2)c1` [Example 15, 5-benzyl-N-(4-(5-chloro-2-methoxyphenyl)pyridin-2-yl)-4H-1,2,4-triazole-3-carboxamide] was tested. Which pIC50 did it give?
A: 5.00 to 6.00

Q: `COc1ccc(C)cc1-c1ccnc(NC(=O)c2nnc(Cc3ccccc3)[nH]2)c1` [Example 16, 5-benzyl-N-(4-(2-methoxy-5-methylphenyl)pyridin-2-yl)-4H-1,2,4-triazole-3-carboxamide] was tested. Which pIC50 did it give?
A: 5.00 to 6.00

Q: How did the pIC50 turn out when `CCc1cc(-c2ccnc(NC(=O)c3nnc(Cc4ccccc4)[nH]3)c2)c(OC)cn1` [Example 63, 5-benzyl-N-(2′-ethyl-5′-methoxy-[4,4′-bipyridin]-2-yl)-4H-1,2,4-triazole-3-carboxamide] was run?
A: 5.00 to 6.00

Q: With `Cc1ccc(N(C)CCCC(C)(C)O)cc1-c1ccnc(NC(=O)c2nnc(Cc3ccccc3)[nH]2)c1` [Example 168] as the compound, how does the pIC50 read?
A: 6.00 to 7.00

Q: With `COCCOc1ccc(Cl)c(-c2ccnc(NC(=O)c3nnc(CC4CCCCC4)[nH]3)c2)c1` [Example 382, N-(4-(2-chloro-5-(2-methoxyethoxy)phenyl)pyridin-2-yl)-5-(cyclohexylmethyl)-4H-1,2,4-triazole-3-carboxamide] as the compound, how does the pIC50 read?
A: ≥ 7.00

Q: With `COCCCOc1ccc(C)c(-c2ccnc(NC(=O)c3nnc(C(C)c4ccccc4)o3)c2)c1` (stereo not shown) [Example 143, N-(4-(5-(3-methoxypropoxy)-2-methylphenyl)pyridin-2-yl)-5-(1-phenylethyl)-1,3,4-oxadiazol-2-carboxamide] as the compound, how does the pIC50 read?
A: 6.00 to 7.00

Q: `CC(C)(O)COc1ccc(Cl)c(-c2ccnc(NC(=O)c3nnc(Cc4ccccc4F)[nH]3)c2)c1` [Example 364, 5-(2-fluorobenzyl)-N-(4-(2-chloro-5-(2-hydroxyl-2-methylpropoxy)phenyl)pyridin-2-yl)-4H-1,2,4-triazole-3-carboxamide] was tested. Which pIC50 did it give?
A: ≥ 7.00

Q: How did the pIC50 turn out when `CC(C)(O)CCCCOc1ccc(Cl)c(-c2cc(NC(=O)c3nnc(Cc4ccccc4F)[nH]3)ncc2F)c1` [Example 419, N-(4-(2-chloro-5-((5-hydroxyl-5-methylhexyl)oxy)phenyl)-5-fluoropyridin-2-yl)-5-(2-fluorobenzyl)-4H-1,2,4-triazole-3-carboxamide] was run?
A: ≥ 7.00

Q: With `CC(C)(O)CCCOc1ccc(F)c(-c2cc(NC(=O)c3nnc(Cc4ccccc4F)[nH]3)ncc2F)c1` [Example 318, N-(5-fluoro-4-(2-fluoro-5-((4-hydroxy-4-methylpentyl)oxy)phenyl)pyridin-2-yl)-5-(2-fluorobenzyl)-4H-1,2,4-triazole-3-carboxamide] as the compound, how does the pIC50 read?
A: ≥ 7.00

Q: With `Cc1ccc(OCCC2CCOCC2)cc1-c1ccnc(NC(=O)c2nnc(Cc3ccccc3F)[nH]2)c1` [Example 226, 5-(2-fluorobenzyl)-N-(4-(2-methyl-5-(2-(tetrahydro-2H-pyran-4-yl)ethoxy)phenyl)pyridin-2-yl)-4H-1,2,4-triazole-3-carboxamide] as the compound, how does the pIC50 read?
A: ≥ 7.00

Q: How did the pIC50 turn out when `Cc1cc(C#N)ccc1-c1ccnc(NC(=O)c2nnc(Cc3ccccc3)[nH]2)c1` [Example 12, 5-benzyl-N-(4-(4-cyano-2-methylphenyl)pyridin-2-yl)-4H-1,2,4-triazole-3-carboxamide] was run?
A: 6.00 to 7.00

Q: How did the pIC50 turn out when `Cc1ccc(OCCCC(C)(C)O)cc1-c1ccnc(NC(=O)c2nnc(CC3CC4CCC3C4)[nH]2)c1` (stereo not shown) [Example 179, 5-(bicyclo[2.2.1]heptan-2-ylmethyl)-N-(4-(5-((4-hydroxy-4-methylpentyl)oxy)-2-methylphenyl)pyridin-2-yl)-4H-1,2,4-triazole-3-carboxamide] was run?
A: ≥ 7.00

Q: With `Cc1ccc(OCCCC(C)C#N)cc1-c1ccnc(NC(=O)c2nnc(Cc3ccccc3)[nH]2)c1` (stereo not shown) [Example 90, 5-benzyl-N-(4-(5-((4-cyanopentyl)oxy)-2-methylphenyl)pyridin-2-yl)-4H-1,2,4-triazole-3-carboxamide] as the compound, how does the pIC50 read?
A: ≥ 7.00

Q: How did the pIC50 turn out when `Cc1ccc(OCCN2CCCCC2)cc1-c1cc(NC(=O)c2nnc(Cc3ccccc3F)[nH]2)ncn1` [Example 449, 5-(2-fluorobenzyl)-N-(6-(2-methyl-5-(2-(piperidin-1-yl)ethoxy)phenyl)pyrimidin-4-yl)-4H-1,2,4-triazole-3-carboxamide] was run?
A: 6.00 to 7.00

Q: `COc1cccc(C)c1-c1ccnc(NC(=O)c2nnc(Cc3ccccc3)[nH]2)c1` [Example 92, 5-benzyl-N-(4-(2-methoxy-6-methylphenyl)pyridin-2-yl)-4H-1,2,4-triazole-3-carboxamide] was tested. Which pIC50 did it give?
A: 6.00 to 7.00

Q: `CC(C)(O)CCCOc1ccc(F)c(-c2ccnc(NC(=O)c3nnc(Cc4ccccc4)[nH]3)c2)c1` [Example 312, 5-benzyl-N-(4-(2-fluoro-5-((4-hydroxy-4-methylpentyl)oxy)phenyl)pyridin-2-yl)-4H-1,2,4-triazole-3-carboxamide] was tested. Which pIC50 did it give?
A: 6.00 to 7.00

Q: How did the pIC50 turn out when `CC(C)(C)OCCOc1ccc(Cl)c(-c2ccnc(NC(=O)c3nnc(CC4CCCCC4)[nH]3)c2)c1` [Example 394, N-(4-(5-(2-(tert-butoxy)ethoxy)-2-chlorophenyl)pyridin-2-yl)-5-(cyclohexylmethyl)-4H-1,2,4-triazole-3-carboxamide] was run?
A: ≥ 7.00

Q: `CCOCCOc1ccc(C)c(-c2ccnc(NC(=O)c3nnc(Cc4ccccc4)[nH]3)c2)c1` [Example 131, 5-benzyl-N-(4-(5-(2-ethoxyethoxy)-2-methylphenyl)pyridin-2-yl)-4H-1,2,4-triazole-3-carboxamide] was tested. Which pIC50 did it give?
A: ≥ 7.00

Q: With `COCCCC(O)c1ccc(C)c(-c2ccnc(NC(=O)c3nnc(Cc4ccccc4)[nH]3)c2)c1` (stereo not shown) [Example 484, 5-benzyl-N-(4-(5-(1-hydroxyl-4-methoxybutyl)-2-methylphenyl)pyridin-2-yl)-4H-1,2,4-triazole-3-carboxamide] as the compound, how does the pIC50 read?
A: ≥ 7.00
